Where a name gives a salt, the structure may show the parent alone.
Tested on: children ages 6 to 12 with asthma
Experiment: 4-week randomized placebo-controlled trial of nebulized albuterol solution, efficacy by FEV1
Format: in vivo
Details: both unit doses; initial dose (Day 1) and after 4 weeks of treatment (Day 28)
Method: Patients were randomized to receive a nebulizer solution comprising either 0.63 mg/3 ml or 1.25 mg/3 ml of albuterol sulfate, or a placebo. The inhalation solution was administered via a Pari LC Plus™ nebulizer and a Pari PRONEB™ compressor. […] In this study, qualifying children ages 6 to 12 were randomized to receive 1 of the following three treatments twice daily (TD) for 4 weeks, each in 3.0 mL volume: (1) 1.25 mg albuterol sulfate inhalation solution; (2) 9.63 mg albuterol sulfate inhalation solution; or (3) placebo (saline). Each patient was provided with a personal compressor-driven PARI LC PLUS™ nebulizer, by Pari Respirator Equipment, Inc., Richmond, Va., for the duration of the study. […] The 4-week study period began with the initial dose, to be taken in the morning, administered at the study site. Pre-dose pulmonary function tests and pulmonary function tests 30 minutes after the end of nebulization and hourly thereafter for 6 hours were performed. After 11 days, patients returned for exchange of study medication and diaries and pulmonary function tests before and 30 minutes after the morning dosing. […] The safety profiles of each unit dose and placebo were determined by collecting vital signs (heart rate, blood pressure, respiration rate, and body temperature) as well as electrocardiograms. […]

CC(C)(C)NCC(O)c1ccc(O)c(CO)c1 (stereo not drawn) [albuterol, α^1-[(tert-butylamino)methyl]-4-hydroxy-m-xylene-α,α′-diol sulfate (2:1)(salt)]
Improvement in FEV1 compared to placebo (area under percent change from pre-dose FEV1 versus time curve): significant improvement

Source: patent publication US20050175544A1, “Albuterol inhalation solution, system, kit and method for relieving symptoms of pediatric asthma” (Dey LP, priority 2001, published 2005)
